Data taken from patent US9078446B2, “Use of N-(tetrazol-4-yl)- or N-(triazol-3-yl)arylcarboxamides or their salts for controlling unwanted plants in areas of transgenic crop plants being tolerant to HPPD inhibitor herbicides” (BAYER INTELLECTUAL PROPERTY GMBH, priority 2011, dated 2015).

How the values were obtained:
Type in all cases: in vivo
[1] = system: non-transformed tobacco plants (Wt); assay: Symptoms due to herbicide application on tobacco plants (damage classes 0-3); settings: 50 g Al/ha, one week after application
From the text: (§1) Seeds harvested from TO transformants will be put on standard soil for germination. Three weeks later plantlets (T1) will be transferred to single pots and grown under standard cultivation conditions (PCT/EP2010/070575, published as WO 2011/076889). Two weeks later, plants were sprayed with several N-(tetrazol-4-yl)- or N-(triazol-3-yl)arylcarboxamides as defined above.
(§2) Tables F1 to F5: Evaluation of the Symptoms Observed Due to the Application of the Herbicides on Transgenic Tobacco Plants, Expressing the Mutant Pseudomonas fluorescens HPPD G336W, the Avena HPPD (AvHPPD), the HPPD from Kordia algicida FMP27 or the HPPD from Blepharisma japonicum (FMP37), Compared to Non-Tranformed Tobacco Plants (“Wt”).
(§3) The herbicides (with “g Al/ha” meaning “g active ingredient/ha”) were applied on 8 to 10 plants originated from 1 to 3 independent transgenic events per transgene.
(§4) The symptoms were evaluated and classified as following: • 3=Very strong damage • 2=Strong damage • 1=Light and transient damage • 0=No damage

[2] = system: soybean plants expressing Pseudomonas fluorescens G336W mutant, FMP 27 and FMP 37; assay: Tolerance to HPPD inhibitors of soybean plants expressing tolerant HPPD enzymes; settings: T1 soybean plants; one week after application
From the text: (§5) Genes coding for the selected HPPD were obtained from a member of the group of organisms consisting of Blepharisma japonicum and Kordia algicida and cloned into an appropriate binary vector allowing the integration of DNA into the soybean genome, under the control of the CaMV35S promoter. For the respective cloning procedures, see WO2011076882 (PCT/EP2010/070567), Example 9; for Blepharisma japonicum (FMP37) and WO2011076889 (PCT/EP2010/070575), Example 9 for Kordia algicida (FMP27).
Between the sequence corresponding to the promoter and the sequence coding for the HPPD a DNA sequence coding for a transit peptide to the chloroplast was inserted, in order to add at the N-terminal extremity of the protein a target signal to allow the localization of the HPPD protein into the plant chloroplast. By using the vectors “pFCO112” (Blepharisma japonicum, WO2011076882), pFCO116 (Korida algicida, WO2011076889), and pFCO117” (see Example B2, above), soybean transformation was achieved as described in Example 10 of WO2011076882 (PCT/EP2010/070567) for Blepharisma japonicum (FMP37) and WO2011076889 (PCT/EP2010/070575) for Kordia algicida (FMP27). Seeds from TO events showing tolerance to tembotrione were harvested.
T1 Soybean seeds were transferred to single pots and grown under standard cultivation conditions, see WO2011076882.
Two weeks later, plants will be sprayed with several N-(tetrazol-4-yl)- or N-(triazol-3-yl)arylcarboxamides as defined above.

[3] = system: transgenic tobacco plants expressing tolerant HPPD enzymes; assay: Tolerance of tobacco plants expressing tolerant HPPD enzymes (all transgenes)
From the text: (§6) Genes coding for the selected HPPD were obtained from a member of the group of organisms consisting of Avena sativa, Pseudomonas fluorescens mutant G336W, Blepharisma japonicum and Kordia algicida and cloned into the binary vector pBin19 allowing the integration of DNA into the tobacco genome, under the control of the CaMV35S promoter. For the cloning procedures, see A2 above for Avena sativa, see B2 above for Pseudomonas fluorescens, mutant G336W, see PCT/EP2010/070567 (published as WO 2011/076882, Example 5; for Blepharisma japonicum (FMP37) and see PCT/EP2010/070575, Example 5 for Kordia algicida (FMP27). Between the sequence corresponding to the promoter and the sequence coding for the HPPD a DNA sequence coding for a transit peptide to the chloroplast was inserted, in order to add at the N-terminal extremity of the protein a target signal to allow the localization of the HPPD protein into the plant chloroplast.
as §1, §2, §3, §4

[4] = system: transgenic tobacco plants expressing Avena HPPD (AvHPPD); assay: Symptoms due to herbicide application on transgenic tobacco plants (damage classes 0-3); settings: AvHPPD line 659; 50 g Al/ha; one week after application
From the text: as §6, §1, §2, §3, §4

[5] = system: transgenic tobacco plants expressing HPPD from Kordia algicida FMP27; assay: as above; settings: 50 g Al/ha, one week after application
From the text: as §6, §1, §2, §3, §4

[6] = system: transgenic tobacco plants expressing HPPD from Blepharisma japonicum (FMP37); assay: as above; settings: 50 g Al/ha, one week after application
From the text: as §6, §1, §2, §3, §4

[7] = system: transgenic tobacco plants expressing mutant Pseudomonas fluorescens HPPD G336W (PfHPPD-G336W); assay: as above; settings: PfHPPD-G336W line 646; 50 g Al/ha; one week after application
From the text: as §6, §1, §2, §3, §4

[8] = system: cotton plants expressing FMP 27 and FMP 37; assay: Tolerance to HPPD inhibitors of cotton plants expressing tolerant HPPD enzymes; settings: T1 cotton plants; one week after application
From the text: as §5, with “the cotton” for “the soybean”, “Example 11;” for “Example 9;”, “Example 11” for “Example 9”
Between the sequence corresponding to the promoter and the sequence coding for the HPPD a DNA sequence coding for a transit peptide to the chloroplast was inserted, in order to add at the N-terminal extremity of the protein a target signal to allow the localization of the HPPD protein into the plant chloroplast. Cotton transformation was achieved as described in Example 12 of WO2011076882 (PCT/EP2010/070567) for Blepharisma japonicum (FMP37) and WO2011076889 (PCT/EP2010/070575) for Kordia algicida (FMP27). Seeds from T0 events showing tolerance to tembotrione were harvested.
T1 Cotton seeds were transferred to single pots and grown under standard cultivation conditions, see WO2011076882 (PCT/EP2010/070567) for Blepharisma japonicum (FMP37) and WO2011076889 (PCT/EP2010/070575) for Kordia algicida (FMP27).
At least 4 weeks later, plants will be sprayed with several N-(tetrazol-4-yl)- or N-(triazol-3-yl)arylcarboxamides as defined above.

CCOc1c(S(C)(=O)=O)ccc(C(=O)Nc2nnnn2C)c1Cl [Compound 4-278]
number of plants with Damage 0 (No damage) [1]: 0 | number of plants with Damage 1 (Light and transient damage) [1]: 0 | number of plants with Damage 2 (Strong damage) [1]: 0 | number of plants with Damage 3 (Very strong damage) [1]: 10 | tolerance of transgenic plants compared to the wild-type soybean plants [2]: superior tolerance | tolerance of the transgenic tobacco plants (symptoms due to application of the herbicide) ([3]; T1 plants sprayed, evaluated one week after application): good tolerance | sensitivity of transgenic tobacco plants compared to wild type (wt) plants ([3]; all tested independent lines, agronomically relevant dose): less sensitive | number of plants with Damage 0 (No damage) [4]: 9 | number of plants with Damage 1 (Light and transient damage) [4]: 0 | number of plants with Damage 2 (Strong damage) [4]: 0 | number of plants with Damage 3 (Very strong damage) [4]: 1 | number of plants with Damage 0 (No damage) ([5]; FMP27 line 733): 6 | number of plants with Damage 1 (Light and transient damage) ([5]; FMP27 line 733): 4 | number of plants with Damage 2 (Strong damage) ([5]; FMP27 line 733): 0 | number of plants with Damage 3 (Very strong damage) ([5]; FMP27 line 733): 0 | number of plants with Damage 0 (No damage) ([5]; FMP27 line 734): 6 | number of plants with Damage 1 (Light and transient damage) ([5]; FMP27 line 734): 3 | number of plants with Damage 2 (Strong damage) ([5]; FMP27 line 734): 0 | number of plants with Damage 3 (Very strong damage) ([5]; FMP27 line 734): 1 | number of plants with Damage 0 (No damage) ([5]; FMP27 line 735): 6 | number of plants with Damage 1 (Light and transient damage) ([5]; FMP27 line 735): 2 | number of plants with Damage 2 (Strong damage) ([5]; FMP27 line 735): 0 | number of plants with Damage 3 (Very strong damage) ([5]; FMP27 line 735): 2 | number of plants with Damage 0 (No damage) ([6]; FMP37 line 749): 5 | number of plants with Damage 1 (Light and transient damage) ([6]; FMP37 line 749): 4 | number of plants with Damage 2 (Strong damage) ([6]; FMP37 line 749): 0 | number of plants with Damage 3 (Very strong damage) ([6]; FMP37 line 749): 1 | number of plants with Damage 0 (No damage) ([6]; FMP37 line 754): 5 | number of plants with Damage 1 (Light and transient damage) ([6]; FMP37 line 754): 4 | number of plants with Damage 2 (Strong damage) ([6]; FMP37 line 754): 0 | number of plants with Damage 3 (Very strong damage) ([6]; FMP37 line 754): 1 | number of plants with Damage 0 (No damage) ([6]; FMP37 line 795): 4 | number of plants with Damage 1 (Light and transient damage) ([6]; FMP37 line 795): 3 | number of plants with Damage 2 (Strong damage) ([6]; FMP37 line 795): 0 | number of plants with Damage 3 (Very strong damage) ([6]; FMP37 line 795): 3 | number of plants with Damage 0 (No damage) [7]: 6 | number of plants with Damage 1 (Light and transient damage) [7]: 3 | number of plants with Damage 2 (Strong damage) [7]: 0 | number of plants with Damage 3 (Very strong damage) [7]: 1 | tolerance of transgenic plants compared to the wild-type cotton plants [8]: superior tolerance
